From patent US20250115582A1, “MOLECULAR GLUE DEGRADERS AND METHODS OF USING THE SAME” (Monte Rosa Therapeutics, Inc., priority 2022, published 2025)

How the values were obtained:
CK1α = molecular target: T1, CK1α (Homo sapiens, UniProt P48729+Q96SW2); experiment: CK1α NanoBiT assay (HiBiT-tagged CSNK1A1 in HEK293 clonal line); assay type: cell-based; conditions: HEK293 HiBiT-CSNK1A1/LgBiT cells, 24 h incubation, luminescence
T1 construct: HEK293 clonal line with CRISPR KI HiBiT tag on CSNK1A1; host or cells: HEK293 clonal line, CRISPR HiBiT knock-in at CSNK1A1, stably expressing LgBiT
Method: HEK293 clonal line with CRISPR KI HiBiT tag on CSNK1A1 and stably expressing LgBiT protein was obtained from Promega (Madison, WI). Cells were plated at 5000 cells per well using Multiflo (BioTek) in 384-well white solid bottom plates (Corning, 3570BC) in […] volume in DMEM media (DMEM, high glucose, HEPES, no phenol red (ThermoFisher Scientific, 21063029)) containing 10% FBS (Corning, 35-075-CV), 1% Penicillin/Streptomycin ((ThermoFisher Scientific, 15140-122), and 0.2% Endurazine (Nano-Glo Endurazine Live Cell Substrate (Promega, N2571)). Cells were incubated for 16 hours at 37C, 5% CO2. Depending on experiment 25 or 75 nL of a compound at 10 mM were added into the plate using an Echo®650 liquid handler (Labcyte) to achieve final concentration of […] in wells. Cells were incubated at 37° C., 5% CO2 for 24 hours followed by signal was read on Pherastar FSX using “LUM plus” optic module.
Data analysis was performed using Scinamic (Scinamic, Cambridge, MA).
Luminescence response (R) was calculated by the formula: response=100*(S−N)/(P−N), where S is the signal of the well, N and P the mean negative and positive control values, respectively, of the same plate. The luminescence response was then fitted in Scinamic using a 3-parameter agonist logistic fit (hillslope=1, EC50>0, top/bottom unconstrained).
DC50 data are reported in Table 2 for compounds in Table 1. In Table 2 below, According to the code, A represents a DC50 value of ≤0.1 μM, B represents a DC50 value>0.1 μM and ≤1 μM, C represents an DC50 value>1 μM.

CRBN/DDB1 = CRBN/DDB1 (Homo sapiens, UniProt Q96SW2); experiment: HTRF binding assay (thalidomide probe displacement from CRBN/DDB1); conditions: CRBN/DDB1 2.5 nM, Cy5-Thalidomide 100 nM, 30 min; geometric mean; read-out: HTRF_Thali_Disp_DR—geo_IC50
Text: Binding of test compounds to CRBN/DDB1 was monitored in an HTRF assay using 1-[5-({2-[2-(2-{[2-(2,6-dioxopiperidin-3-yl)-1,3-dioxo-2,3-dihydro-1H-isoindol-4-yl]oxy}acetamido)ethoxy]ethyl}carbamoyl)pentyl]-3,3-dimethyl-2-[(1E,3E)-5-[(2E)-1,3,3-trimethyl-5-sulfo-2,3-dihydro-1H-indol-2-ylidene]penta-1,3-dien-1-yl]-3H-indol-1-ium-5-sulfonate as a fluorescent probe. In this assay, compounds displace the fluorescently labeled thalidomide-based probe bound to CRBN and fluorescence is monitored with increasing compound concentration. Assays were conducted in Greiner white 384 well HiBase plates (Cat. No 784075-25) in 10 μL total volume. A one pot detection solution of CRBN/DDB1 (2.5 nM), anti-His Terbium Cryptate Gold (1×, PerkinElmer Cat. #: 61HI2TLB), and Cy5-Thalidomide (100 nM, Tenova Cat.: T52461) was prepared in 20 mM HEPES, 20 mM NaCl, 0.2 mM TCEP, 0.2 mM EDTA, and 0.005% Tween20 was dispensed to each assay plate. Test compounds were stored in dry, ambient temperatures at 10 mM. A 10-point, 1:3 dilution series was prepared from 10 mM stock concentrations in Echo-compatible LDV plates. 10 nL of each compound dilution series was dispensed into assays wells using an Echo 650 (Labcyte inc. USA). 10 nL of 10 mM lenalidomide (Selleckchem Cat no. S1029) was transferred into the active-control wells for the assay and 10 nL of DMSO was transferred into the negative control wells. The assay was then allowed to incubate for 30 min at ambient temperature after transferring the test compounds. Plate measurements were taken on a Pherastar FSX (BMG Labtech, Germany) using the HTRF Red filter (Ex. 337 nm, eml: 620 nm, em2: 665 nm) (Flashes: 50, Integration time: 60-400 μs, Z-height: 10 mm, Ratio-multiplier: 10,000). Analysis, HTRF ratio and IC50 values were derived using KNIME analytics (KNIME Zurich) transformation and fitting within Collaborative Drug Discovery (Collaborative Drug Discovery USA) using a 4-parameter logistic fit. HTRF ratio calculation was performed using the following formula: […]
where em665nm represents the measured emission at 665 nm upon excitation at 337 nm and em620nm the measured emission at 620 nm upon excitation at 337 nm. The 4 parameter logistic fitting model was performed using the following formula: […]
where Y represents the HTRF ratio response (as defined previously), X the compound concentration in μM, Ymin the minimum response plateau, Ymax the maximum response plateau, IC50 the concentration of agonist that gives a response half way between Ymin and Ymax and HillSlope the steepness of the family of curves. No fitting model constraints was applied on Ymin, or Ymax whilst IC50>0 and −0.5>HillSlope>−3
Ki values were derived from the geometric mean of the IC50 values using the Cheng-Prusoff transformation:
where [L] represents the concentration of fluorescent probe in μM, Kd the affinity (binding constant) of the fluorescent probe in units of μM and IC50 the concentration of agonist that gives a response halfway between Ymin and Ymax (as described in 1.2.1)
Analysis and IC50 values were derived using KNIME analytics (KNIME, Zurich) transformation and fitting within Collaborative Drug Discovery (Collaborative Drug Discovery, USA) as described in 1.2.1. Ki values were derived from the geometric mean of the IC50 values using the Cheng-Prusoff transformation as described in 2.2.2. Data was visualized in GraphPad Prism 8.1.2 (GraphPad, USA) and reported as mean and standard deviation. Microsoft Office Excel 2012 (Redmond, WA) was used for calculation of mean and standard deviation.
IC50 data are reported in Table 3 for compounds in Table 1. In Table 3 below, According to the code, A represents a IC50 value of ≤0.1 μM, B represents a IC50 value≥0.1 μM and ≤1 μM, C represents an IC50 value>1 μM.

SKCO1 = experiment: GI50 growth inhibition, CyQUANT, SKCO1; assay type: cell-based; conditions: Homo sapiens, SK-CO-1, SKCO1 cells, 120 to 168 hours
Method: (§1) SKCO1, LS180, and LS174T cell lines were purchased from ATCC. CW2 cell line was purchased from Riken. GP2D cell line was purchased from Sigma/ECACC. All cell lines were cultured in manufacturer's recommended media at 37° C., 5% CO2. Briefly, cells were suspended in 200 μL of media and seeded at 300 to 1,800 cells per well in tissue culture treated 96-well plates with black walls and clear bottom. Plates were incubated overnight and initial (T0) read was performed the following day using CyQUANT Direct Cell Proliferation Assay Kit (Thermo Fisher Scientific) according to manufacturer's protocol. All compounds were solubilized in DMSO and prepared at 3-fold serial dilution, using 9 points starting at 30 μM as highest concentration, administered to cells and incubated for 120 to 168 hours, at which point CyQUANT assay measurement was performed using Acumen Cellista instrument (Ex/Em 480/520 nm). Media-only wells were used as blank, and 0.3% DMSO was used as DMSO-treated cell control. Growth inhibition (percent response) was calculated using the following formula in Excel: “=if ([Compound treated Day N]>[Untreated Day 0, AVG], ([Compound treated Day N]−[Untreated Day 0, AVG])/([Untreated Day N]−[Untreated Day 0, AVG])*100, ([Compound Treated Day N]−[Untreated Day 0, AVG])/([Untreated Day 0, AVG])*100)”. GI50 is the response corresponding to the 50% of untreated control.
(§2) GI50 data are reported in Tables 4a, 4b, 4c, 4d, and 4e for compounds in Table 1. In Tables 4a, 4b, 4c, 4d, and 4e below, According to the code, A represents a GI50 value of ≤0.1 μM, B represents a GI50 value>0.1 μM and ≤1 μM, C represents an GI50 value>1 μM.

CW2 = experiment: GI50 growth inhibition, CyQUANT, CW2; assay type: cell-based; conditions: Homo sapiens, CW-2, CW2 cells, 120 to 168 hours
Method: as §1, §2

GP2D = experiment: GI50 growth inhibition, CyQUANT, GP2D; assay type: cell-based; conditions: GP2D cells, 120 to 168 hours
Method: as §1, §2

LS180 = experiment: GI50 growth inhibition, CyQUANT, LS180; assay type: cell-based; conditions: Homo sapiens, LS180 cells, 120 to 168 hours
Method: as §1, §2

LS174T = experiment: GI50 growth inhibition, CyQUANT, LS174T; assay type: cell-based; conditions: Homo sapiens, LS174T cells, 120 to 168 hours
Method: as §1, §2

T1 sequence (P48729 whole entry): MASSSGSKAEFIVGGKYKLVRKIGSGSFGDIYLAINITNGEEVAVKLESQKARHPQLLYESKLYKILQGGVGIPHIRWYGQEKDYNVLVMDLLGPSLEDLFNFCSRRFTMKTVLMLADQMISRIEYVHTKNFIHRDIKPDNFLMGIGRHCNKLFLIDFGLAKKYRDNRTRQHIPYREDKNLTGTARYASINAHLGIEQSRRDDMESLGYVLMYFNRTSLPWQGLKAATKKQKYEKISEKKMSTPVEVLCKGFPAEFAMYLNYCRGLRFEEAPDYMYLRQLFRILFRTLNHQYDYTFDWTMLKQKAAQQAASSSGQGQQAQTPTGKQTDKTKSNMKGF
T1 sequence (Q96SW2 whole entry): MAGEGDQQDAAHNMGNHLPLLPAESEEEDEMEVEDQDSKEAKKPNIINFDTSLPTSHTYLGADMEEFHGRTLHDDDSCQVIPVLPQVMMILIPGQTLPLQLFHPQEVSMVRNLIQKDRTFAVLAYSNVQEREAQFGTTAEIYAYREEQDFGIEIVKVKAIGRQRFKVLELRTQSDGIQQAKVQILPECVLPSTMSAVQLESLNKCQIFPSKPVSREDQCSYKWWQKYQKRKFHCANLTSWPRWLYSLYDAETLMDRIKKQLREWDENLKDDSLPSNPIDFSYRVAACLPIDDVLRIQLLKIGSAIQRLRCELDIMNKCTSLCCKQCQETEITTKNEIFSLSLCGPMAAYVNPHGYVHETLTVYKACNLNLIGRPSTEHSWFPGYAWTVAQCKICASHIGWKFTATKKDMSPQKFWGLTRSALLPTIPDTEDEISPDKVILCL
T1 sequence (Q16531 2-1140 partner limits assumed): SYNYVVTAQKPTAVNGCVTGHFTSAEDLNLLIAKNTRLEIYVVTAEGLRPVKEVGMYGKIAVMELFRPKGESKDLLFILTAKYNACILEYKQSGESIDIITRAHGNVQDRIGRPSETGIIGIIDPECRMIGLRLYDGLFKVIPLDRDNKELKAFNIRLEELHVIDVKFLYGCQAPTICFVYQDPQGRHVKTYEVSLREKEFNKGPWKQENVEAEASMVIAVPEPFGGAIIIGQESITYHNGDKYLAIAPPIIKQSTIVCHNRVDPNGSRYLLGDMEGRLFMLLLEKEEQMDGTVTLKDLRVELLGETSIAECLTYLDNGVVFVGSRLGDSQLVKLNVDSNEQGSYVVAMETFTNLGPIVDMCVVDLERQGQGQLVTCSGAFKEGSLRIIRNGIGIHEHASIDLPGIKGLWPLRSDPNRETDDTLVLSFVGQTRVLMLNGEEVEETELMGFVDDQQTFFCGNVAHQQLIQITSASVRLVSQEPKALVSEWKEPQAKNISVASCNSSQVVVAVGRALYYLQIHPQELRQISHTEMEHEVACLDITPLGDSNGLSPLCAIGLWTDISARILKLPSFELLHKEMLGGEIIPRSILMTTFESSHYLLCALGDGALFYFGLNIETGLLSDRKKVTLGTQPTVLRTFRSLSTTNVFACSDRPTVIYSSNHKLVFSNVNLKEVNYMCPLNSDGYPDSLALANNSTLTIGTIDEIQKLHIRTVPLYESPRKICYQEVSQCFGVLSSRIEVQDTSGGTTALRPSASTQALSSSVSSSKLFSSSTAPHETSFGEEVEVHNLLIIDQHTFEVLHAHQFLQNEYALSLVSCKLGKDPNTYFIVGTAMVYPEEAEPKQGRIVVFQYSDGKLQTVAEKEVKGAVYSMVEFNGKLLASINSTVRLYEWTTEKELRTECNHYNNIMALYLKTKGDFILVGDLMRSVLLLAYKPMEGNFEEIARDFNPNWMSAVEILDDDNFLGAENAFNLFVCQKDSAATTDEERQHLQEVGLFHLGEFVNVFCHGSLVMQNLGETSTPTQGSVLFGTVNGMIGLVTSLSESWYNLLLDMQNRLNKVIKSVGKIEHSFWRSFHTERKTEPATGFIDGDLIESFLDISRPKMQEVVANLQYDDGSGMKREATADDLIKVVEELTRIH
CRBN/DDB1, sequence (Q96SW2 whole entry): as the sequence (Q96SW2 whole entry) above
CRBN/DDB1, sequence (Q16531 whole entry partner): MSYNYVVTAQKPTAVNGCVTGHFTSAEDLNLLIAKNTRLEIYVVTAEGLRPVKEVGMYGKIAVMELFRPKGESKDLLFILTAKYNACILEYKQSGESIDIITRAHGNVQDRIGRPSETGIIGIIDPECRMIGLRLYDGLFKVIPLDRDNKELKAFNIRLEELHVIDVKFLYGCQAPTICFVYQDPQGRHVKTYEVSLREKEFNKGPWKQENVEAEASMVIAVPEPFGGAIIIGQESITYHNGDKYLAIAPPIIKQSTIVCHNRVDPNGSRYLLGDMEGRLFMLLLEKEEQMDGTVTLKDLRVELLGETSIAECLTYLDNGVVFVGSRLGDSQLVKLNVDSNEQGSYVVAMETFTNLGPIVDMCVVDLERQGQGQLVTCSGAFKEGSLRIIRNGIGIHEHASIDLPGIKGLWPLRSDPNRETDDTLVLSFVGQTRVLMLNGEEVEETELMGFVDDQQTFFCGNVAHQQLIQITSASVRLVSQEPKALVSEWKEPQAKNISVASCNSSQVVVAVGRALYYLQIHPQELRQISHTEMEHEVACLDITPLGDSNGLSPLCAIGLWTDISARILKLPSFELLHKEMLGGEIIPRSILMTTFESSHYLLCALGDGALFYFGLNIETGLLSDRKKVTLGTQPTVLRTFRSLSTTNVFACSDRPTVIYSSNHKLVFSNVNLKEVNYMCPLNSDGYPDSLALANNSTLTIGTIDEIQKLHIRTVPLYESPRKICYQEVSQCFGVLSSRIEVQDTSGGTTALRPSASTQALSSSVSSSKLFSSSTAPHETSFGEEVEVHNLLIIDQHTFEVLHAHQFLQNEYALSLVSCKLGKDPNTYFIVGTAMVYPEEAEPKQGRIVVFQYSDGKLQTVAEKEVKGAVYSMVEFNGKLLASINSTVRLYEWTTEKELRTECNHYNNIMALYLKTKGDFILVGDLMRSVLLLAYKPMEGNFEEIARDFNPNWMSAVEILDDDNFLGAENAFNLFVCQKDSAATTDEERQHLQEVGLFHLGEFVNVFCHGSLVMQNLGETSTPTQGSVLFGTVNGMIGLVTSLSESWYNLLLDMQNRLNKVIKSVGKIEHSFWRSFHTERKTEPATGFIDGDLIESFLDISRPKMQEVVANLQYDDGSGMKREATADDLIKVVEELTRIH

SMILES | DC50 (CK1α) | IC50 (CRBN/DDB1) | GI50 (SKCO1) | GI50 (CW2) | GI50 (GP2D) | GI50 (LS180) | GI50 (LS174T)
Cc1cc(CC(=O)Nc2ccc3c(c2)CN(C2CCC(=O)NC2=O)C3=O)ccc1Cl (stereo not drawn) [Compound 144, 2-(4-chloro-3-methylphenyl)-N-(2-(2,6-dioxopiperidin-3-yl)-1-oxoisoindolin-5-yl)acetamide] | 0.1 to 1 µM | 100 to 1000 nM |  |  |  |  | 
COCc1nc(C(=O)Nc2ccc3c(c2)CN(C2CCC(=O)NC2=O)C3=O)cn1-c1ccccc1 (stereo not drawn) [Compound 157, N-(2-(2,6-dioxopiperidin-3-yl)-1-oxoisoindolin-5-yl)-2-(methoxymethyl)-1-phenyl-1H-imidazole-4-carboxamide] | < 0.1 µM | ≤ 100 nM |  |  |  |  | 
Cc1c(C(=O)Nc2ccc3c(c2)CN(C2CCC(=O)NC2=O)C3=O)ncn1-c1ccccc1 (stereo not drawn) [Compound 158, N-(2-(2,6-dioxopiperidin-3-yl)-1-oxoisoindolin-5-yl)-5-methyl-1-phenyl-1H-imidazole-4-carboxamide] | < 0.1 µM | 100 to 1000 nM |  |  |  |  | 
COCc1c(C(=O)Nc2ccc3c(c2)CN(C2CCC(=O)NC2=O)C3=O)ncn1-c1ccccc1 (stereo not drawn) [Compound 159, N-(2-(2,6-dioxopiperidin-3-yl)-1-oxoisoindolin-5-yl)-5-(methoxymethyl)-1-phenyl-1H-imidazole-4-carboxamide] | 0.1 to 1 µM | 100 to 1000 nM |  |  |  |  | 

Further lines, with some results ahead:

DC50 (CK1α) | IC50 (CRBN/DDB1) | GI50 (SKCO1) | SMILES | GI50 (CW2) | GI50 (GP2D) | GI50 (LS180) | GI50 (LS174T)
< 0.1 µM | 100 to 1000 nM | < 100 nM | O=C1CCC(N2Cc3cc(NC(=O)c4cn(-c5ccccc5)cn4)ccc3C2=O)C(=O)N1 (stereo not drawn) [Compound 109, N-(2-(2,6-dioxopiperidin-3-yl)-1-oxoisoindolin-5-yl)-1-phenyl-1H-imidazole-4-carboxamide] | < 100 nM | < 100 nM | 100 to 1000 nM | < 100 nM
< 0.1 µM | 100 to 1000 nM |  | O=C1CCC(N2Cc3cc(NC(=O)c4ccccc4Cl)ccc3C2=O)C(=O)N1 (stereo not drawn) [Compound 148] |  |  |  | 
< 0.1 µM | ≤ 100 nM |  | Cc1nc(C(=O)Nc2ccc3c(c2)CN(C2CCC(=O)NC2=O)C3=O)cn1-c1ccccc1 (stereo not drawn) [Compound 155, N-(2-(2,6-dioxopiperidin-3-yl)-1-oxoisoindolin-5-yl)-2-methyl-1-phenyl-1H-imidazole-4-carboxamide] |  |  |  | 
< 0.1 µM | 100 to 1000 nM |  | O=C1CCC(N2Cc3cc(NC(=O)c4cn(-c5ccccc5)c(C(F)(F)F)n4)ccc3C2=O)C(=O)N1 (stereo not drawn) [Compound 156, N-(2-(2,6-dioxopiperidin-3-yl)-1-oxoisoindolin-5-yl)-1-phenyl-2-(trifluoromethyl)-1H-imidazole-4-carboxamide] |  |  |  | 
